The numbers were not newly measured in patent US12466782B2, “Arylcyclohexylamine derivatives and process for preparing same” (Technische Hochschule Köln, priority 2020, dated 2025), which cites them from elsewhere.

The conditions of the series: mouse model.

Consider `NC1(c2ccccc2Cl)CCCC(O)C1=O` (stereo not shown) [6-hydroxynorketamine], for which the “dose at which an effect comparable to that of 10 mg/kg ketamine was observed” value is at least 25 mg/kg.
